Test results as given in patent EP0120019B1, “PHARMACEUTICAL COMPOSITION HAVING A C[…]” (SCHERING AKTIENGESELLSCHAFT, priority 1982, dated 1983).

Assays:
[1] = system: Menschliche Leukämiezellen und Lungenkarzinomzellen; assay: Inhibition of proliferation (growth kinetics by cell count) of tumour cells in culture; assay type: cell-based; details: for zytostatische Wirkung (Hemmung der Proliferation in vitro): general statement
[2] = system: adulte und embryonale Lungenfibroblasten; assay: Inhibition of proliferation of normal cells under the same culture conditions; assay type: cell-based; details: high doses such as 100 ug/ml; same test conditions
Excerpt: Tag durch frisches Medium mit Lisurid ersetzt wurde, wobei sich die Menge des Ergot-Alkaloids auf die freie Base Lisurid bezieht. Die Wachstumskinetik, d.h. die Vermehrungsrate pro Zeiteinheit, wurde durch Bestimmung der Zellzahl nach 48, 96 und 144 Stunden ermittelt und mit der von Zellen verglichen, die in Lisurid-freiem Medium kultiviert wurden.

[3] = system: weißen Blutzellen des Menschen; assay: Accumulation in cells on incubation, detected by fluorescence optics; assay type: cell-based; details: incubation with 10^-7 -10-5-molar concentration
Excerpt: Die selektive Wirkung auf Tumore wird auch dadurch unterstützt, daß sich Ergot-Alkaloide wie Lisurid in einzelnen Organen selektiv anreichern und damit hier zu besonders hoher Wirksamkeit gelangen.

[4] = Long-term oral treatment of rats (104 - 107 weeks), mortality; assay type: in vivo, Han-Wistar-Ratten; details: 0,02, 0,2 and 1,0 mg/kg oral
[5] = system: Lungenademokarzinomen und Mäuseleukämien; assay: Long-term oral treatment of mice (104 - 107 weeks), mortality and tumour incidence; assay type: in vivo, NMRI-Mäuse; details: 0.02, 0,06 and 0,2 mg/kg oral
Excerpt: Des weiteren wurden NMRI-Mäuse mit 0.02.

Which “zytostatische Wirkung (Hemmung der Proliferation in vitro)” value (shortened to “zytostatische Wirkung”) [1] does the source give for `CCN(CC)C(=O)N[C@H]1C=C2c3cccc4[nH]c(Br)c(c34)C[C@H]2N(C)C1` [Bromergurid, 1,1-Diethyl-3-(2-brom-6-methyl-9.10-didehydro-8a-ergolinyl)-harnstoff] here?
The value was “zytostatisch wirken”.

What does the source list for `CCN(CC)C(=O)N[C@H]1C=C2c3cccc4[nH]cc(c34)C[C@H]2N(C)C1` [Lisurid, 1,1-Diethyl-3-(6-methyl-9.10-didelhydro-8a-ergolinyl)-harnstoff]?
Hemmung von Normalzellen [2]: wenn überhaupt nur minimal gehemmt; Anreicherung der Lisuridfluoreszenz [3]: massive Anreicherung; Sterblichkeit (überwiegend tumorbedingt) [4]: dosisabhängig reduzieren; Auftreten von Lungenademokarzinomen und Mäuseleukämien [5]: deutlichen Hemmung; Mortalität [5]: teilweise zur Verminderung der Mortalität; zytotoxische Wirkung ([1]; 100 ug/ml): zytotoxische Wirkung

With `CCCN1CC(NC(=O)N(CC)CC)CC2c3cccc4[nH]cc(c34)CC21` (stereo not drawn) [Protegurid, 1,1-Diethyl-3-(6-u-propyl-8α-ergolinyl)-harnstoff] as the molecule, how does the “zytostatische Wirkung” value [1] read?
Its value is “zytostatisch wirken”.

Which “zytostatische Wirkung” value [1] does the source give for `CCN(CC)C(=O)N[C@H]1C[C@@H]2c3cccc4[nH]cc(c34)C[C@H]2N(C)C1` [Tergurid, 1,1-Diethyl-3-(6-methyl-8a-erfolinyl)-harnstoff] here?
Its value is “zytostatisch wirken”.
